This is an account of results in patent publication US20060074109A1, “Use of inhibitors of 24-hydroxylase in the treatment of cancer” (Sapphire Therapeutics, Inc., priority 2004, published 2006).

Like-named read-outs stand apart in the source and are kept apart here.

One assay has as its system OVCAR-3 cells. Kind of assay: Cell growth assay, crystal violet, 11 days. The format is cell-based, human. To be noted: 11 days. The protocol:
(§1) The human ovarian adenocarcinoma cell line, OVCAR-3 (ATCC, Manassas, Va.) was maintained, as recommended by the supplier, in RPMI 1640 medium (Sigma Aldrich, St. Louis, Mo.) supplemented with 10% FBS, 10 μg/ml insulin, 0.25% glucose and antibiotics (100 IU/ml penicillin, 100 μg/ml streptomycin). Human ovarian adenocarcinoma cell lines UT-OC-1, UT-OC-2, UT-OC-3, UT-OC-4, UT-OC-5 (Grenman, S., Engblom, P., Rantanen, V., Klemi, P. and Isola, J., “Cytogenetic Characterization of Five New Ovarian Carcinoma Cell Lines,” Acta Obstet. Gynecol. Scand., 76:83 (1997)) and SK-OV-3 and a human keratinocyte cell line HaCaT were grown in DMEM (Sigma Aldrich) with 10% FBS and antibiotics (100 IU/ml penicillin, 100 μg/ml streptomycin), and monkey kidney COS cells were maintained in DMEM/F12 (Sigma Aldrich) with 5% FBS. All cell lines were kept at 37° C. in a humidified 95% air/5% CO2 incubator.
(§2) When OVCAR-3 cells were on the logarithmic growth phase (70% confluent) the growth assay was started. For cell growth assay, 2,000 cell/200 μl/well were plated on 96-well culture plates. […] Ethanol was used as a vehicle, and it was also included in the control. The medium containing ethanol vehicle and/or hormones were changed to a fresh one every third day. Cell growth samples were taken 0, 1, 3, 5, 7, 9 and 11 days after the treatment.
(§3) Relative cell numbers were quantified as described previously (Kueng W, Silber E, Eppenberger U. Quantification of cells cultured on 96-well plates. Anal. Biochem., 182:16-9 (1989)). Cells were fixed on the bottom of the wells by addition of 10 μl of 11% glutaraldehyde solution in 0.1% phosphate buffer to 100 μl of medium. The plate was shaken 500 cycles/min for 15 min, washed 3 times by submersion in de-ionised water and air-dried. Fixed cells were stained with 0.1% solution of crystal violet dissolved in de-ionised water. After 20 min incubation, excess dye was removed by carefully washing with de-ionised water. The plate was air-dried prior to a bound dye solubilisation in 100 μl of 10% acetic acid. Relative cell number was given as absorbance units by measuring the optical density (590 nm) from each well using Victor 1420 multilabel counter (Wallac, Turku, Finland). Six determinations were used to calculate the mean optical density ±SD in each concentration at each time point. The absorbance value of day 0 (an overnight culture of 2,000 cells/well) was set as 0 by subtracting it from each value obtained from adjacent time-point measurements (days 1-11), and based on these values growth curves were created. Experiments were repeated 3-5 times. Day 11 was used to compare the effect of hormone treatments and 24OHase inhibitor. Statistical analyses were done using Student's t-test.
The cell growth response was determined as described in Experiment I. Briefly, cells were treated with indicated hormone concentrations or combinations of hormone and 24OHase inhibitor (VID400) for 11 days. The growth medium and hormones were changed to a fresh one every third day. After the treatment period, cells were fixed, stained with crystal violet, and the optical density (590 nm) was determined. The cell growth is presented as a percentage of ethanol-treated cells. The values represent the mean of 3 separate experiments ±SD. (*p<0.05, **p<0.001, ***p<0.0001, Student's t-test).
(§4) Cell growth samples were obtained after 11 days treatment.

The test system of assay [1] is 24OHase mRNA in OVCAR-3 cells. Kind of assay: Quantitative RT-PCR of 24OHase mRNA. Type of assay: cell-based, human. Particulars: 100 nM. The protocol: Ethanol was used as a vehicle, and it was also added to the control cells. For RNA extraction, the cells were collected 4, 6 and 24 hr after the treatment with vitamin D compound or vehicle. RNA extractions were done with TRIZOL reagent (GIBCO Invitrogen Corporation, Paisley, UK). The integrity of RNA samples was confirmed on gel electrophoresis. […] The reactions for 24-hydroxylase were performed in the LightCycler instrument (Roche Diagnostics, Basel, Switzerland) from 300 ng total RNA. PBGD (human porphobilinogendeaminase) mRNA was used as an […] control. […] Nucleotides, Tth DNA polymerase (DNA polymerase and reverse transcriptase activity), SYBR Green I and reaction buffer were included in the LightCycler-RNA Master SYBR Green I kit (Roche Diagnostics). […] Cell. […] Detection of fluorescent product was performed at the end of the extension step of each cycle. To verify the specific products, melting curve analysis and gel electrophoresis were done. The data were quantified by the Fit Points method with LightCycler Data Analysis software. […] Hormone treatments and RT-PCR were done twice.

Another assay deals with UT-OC-1 cells. Kind of assay: Cell growth assay, crystal violet, 11 days. To be noted: 11 days. The format is cell-based, human. The protocol:
as §1, §2, §3, §4

A further assay relates to UT-OC-4 cells. The assay can be described thus: Cell growth assay, crystal violet, 11 days. Type of assay: cell-based, human. To be noted: 11 days. The protocol: as §1, §2, §3, §4
In assay [2] the test system is RARα mRNA in SK-OV-3 cells. Kind of assay: RPA and quantitative RT-PCR of receptor mRNA. The format is cell-based, human. To be noted: 24 hour. An excerpt: (§5) Briefly, ^32P-labelled ([α-^32P]UTP, Amersham Biosciences, Buckinghamshire, UK) RNA-probes were synthesised using in vitro transcription reaction (In vitro transcription reaction kit, Pharmingen, San Diego, Calif.) using two different template sets.
(§6) RPLP0 was used as reference gene.

Assay [3] relates to RARγ mRNA in SK-OV-3 cells. Kind of assay: RPA and quantitative RT-PCR of receptor mRNA. The format is cell-based, human. Particulars: 24 hour.
Text: as §5, §6

For assay [4], the system named is RARγ mRNA in UT-OC-1 cells. The assay can be described thus: RPA and quantitative RT-PCR of receptor mRNA. The format is cell-based, human. To be noted: 24 hour.
Text: as §5, §6

Assay [5] has as its system OVCAR-3 ovarian cancer cells. Kind of assay: Cell growth, methylene blue uptake (Experiment VI). The format is cell-based, human. Particulars: calcitriol alone. The protocol:
(§7) Culture conditions were the same as for Experiment I. Cell growth was measured using uptake of methylene blue (0.5% in 50% ethanol), followed by air drying and release of the dye in 1% sodium N-lauroyl sarcosine in PBS.

Assay [6] deals with CWR22Rv-1 prostate cancer cells. The assay can be described thus: Cell growth, methylene blue uptake (Experiment VI). Type of assay: cell-based. Particulars: calcitriol alone, compared with OVCAR-3. The protocol:
as §7

In assay [7] the test system is DU145 prostate cancer cells. Kind of assay: Cell growth, methylene blue uptake (Experiment VI). The format is cell-based. Particulars: calcitriol alone, compared with OVCAR-3. The protocol: as §7
Assay [8] relates to PC3 prostate cancer cells. Kind of assay: Cell growth, methylene blue uptake (Experiment VI). The format is cell-based. To be noted: calcitriol alone, compared with OVCAR-3. The protocol: as §7
Another assay concerns SK-OV-3 cells. The assay can be described thus: Cell growth assay, crystal violet, 11 days. The format is cell-based, human. To be noted: alone (1 or 10 μM). The protocol: as §1, §2, §3, §4
Assay [9] has as its system RARβ mRNA in OVCAR-3 cells. Kind of assay: RPA and quantitative RT-PCR of receptor mRNA. Type of assay: cell-based, human. Particulars: 10 μM, 24 hour.
Text: as §5, §6

For assay [10], the system named is RARβ mRNA in SK-OV-3 cells. The assay can be described thus: RPA and quantitative RT-PCR of receptor mRNA. Type of assay: cell-based, human. Particulars: 10 μM, 24 hour.
Text: as §5, §6

For assay [11], the system named is VDR mRNA in UT-OC-1 cells. The assay can be described thus: RPA and quantitative RT-PCR of receptor mRNA. The format is cell-based, human. Particulars: 10 μM, 24 hour.
Text: as §5, §6

In assay [12] the test system is AIB1 mRNA in OVCAR-3 cells. Kind of assay: RPA of nuclear receptor coregulator mRNA. The format is cell-based, human. To be noted: 10 μM, 24 hour. An excerpt:
Briefly, ^32P-labelled ([α-^32P]UTP, Amersham Biosciences, Buckinghamshire, UK) RNA-probes were synthesised using in vitro transcription reaction (In vitro transcription reaction kit, Pharmingen, San Diego, Calif.) using two different template sets. […] A coregulator set produces probes for NCoR (360 bp), SMRT (310 bp), pCAF (267 bp), CBP (234 bp), TIF2 (200 bp), AIB1 (179 bp), SRC-1a (145 bp) and −1e (160 bp) and p300 (127 bp); 18S (80 bp) was used as loading control with each probe set.

A further assay concerns the target T1, 24-hydroxylase (Homo sapiens, UniProt Q07973).
T1 sequence (Q07973 36-514): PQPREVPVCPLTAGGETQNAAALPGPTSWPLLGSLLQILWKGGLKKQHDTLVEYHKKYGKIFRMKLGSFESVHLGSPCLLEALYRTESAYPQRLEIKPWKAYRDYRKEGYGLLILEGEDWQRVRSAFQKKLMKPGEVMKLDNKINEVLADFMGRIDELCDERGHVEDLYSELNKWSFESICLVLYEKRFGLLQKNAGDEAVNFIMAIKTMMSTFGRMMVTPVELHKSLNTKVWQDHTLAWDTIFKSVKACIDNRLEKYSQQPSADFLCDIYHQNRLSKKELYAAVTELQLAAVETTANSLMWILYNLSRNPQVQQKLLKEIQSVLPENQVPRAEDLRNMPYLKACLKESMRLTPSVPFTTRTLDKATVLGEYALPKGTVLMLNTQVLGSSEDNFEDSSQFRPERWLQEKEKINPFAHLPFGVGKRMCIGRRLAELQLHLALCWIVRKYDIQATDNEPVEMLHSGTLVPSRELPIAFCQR
Particulars: Kahraman et al., J. Med. Chem. 47:6854-6863 (2004); cited from earlier work.

In the case of `C=C1/C(=C\C=C2/CCC[C@]3(C)[C@@H]([C@H](C)CCCC(C)(C)O)CC[C@@H]23)C[C@@H](O)C[C@@H]1O` [1,25(OH)2D3, calcitriol], the “stimulated growth compared to the control” value in the assay on OVCAR-3 cells (0.1 nM) is on record as 14%. In addition, the “effect on the cell growth” value with OVCAR-3 cells (1 nM alone, Experiment IV) is reported as “did not have an effect on the cell growth”; with OVCAR-3 cells (1 nM, Experiment I) it was “did not have an effect on the cell growth”. In addition, the inhibition at 0.01 µM turned out to be 26% in the assay with OVCAR-3 cells (Homo sapiens, OVCAR-3, 264 h, 10 nM alone, Experiment IV, read-out: growth inhibition compared to the control) and 8% in the assay with OVCAR-3 cells (Homo sapiens, OVCAR-3, 264 h, 10 nM, Experiment I, read-out: inhibited growth compared to the control). Moreover, the inhibition at 0.1 µM in the assay with OVCAR-3 cells (Homo sapiens, OVCAR-3, 264 h, 100 nM, read-out: inhibited growth compared to the control) was found to be 74%. In addition, the “induction of 24OHase mRNA expression” value is on record as 650 fold in assay [1] (6 hr treatment) and 1,100 fold in assay [1] (24 hr treatment). In addition, the “effect on cell growth” value is given as “did not inhibit the cell growth” in the assay with UT-OC-1 cells (100 nM alone); “did not restrain cell growth” in the assay with UT-OC-4 cells (100 nM alone); “inhibited cell growth in a concentration-dependent manner” in assay [5]; “less pronounced” in assay [6]; “less pronounced” in assay [7]; “less pronounced” in assay [8]. The RARα expression in [2] (100 nM) was 186±8 % of control. In addition, in [3] (100 nM), the “increase of RARγ compared to control” value is 78±12%. Further, the “up regulation of RARγ compared to control” value in assay [4] (100 nM) is 91±81%.

`CC1=C(/C=C/C(C)=C\C=C\C(C)=C\C(=O)O)C(C)(C)CCC1` [9-CRA, 9-cis retinoic acid]: the “effect on cell growth” value in the assay on SK-OV-3 cells is reported as “inhibited the growth of SK-OV-3 cells”; with UT-OC-1 cells (10 μM alone) it was “inhibited cell growth with equal magnitude”; with UT-OC-4 cells (10 μM alone) it was “inhibited UT-OC-4 cell growth”. Further, the RARα expression in assay [2] (10 μM) is 195±1 % of control. The RARβ expression is reported as 276±68 % of control in assay [9] and 345±17 % of control in [10]. The “increase of RARγ compared to control” value in [3] (10 μM) is given as 119±52%. Besides, the “up regulation of RARγ compared to control” value in assay [4] (10 μM) is 44±15%. In addition, in [11], the VDR expression is given as 58±25 % of control. Moreover, the AIB1 expression in assay [12] was 171 (±5) % of ethanol-treated control.

`CC1=C(/C=C/C(C)=C/C=C/C(C)=C/C(=O)O)C(C)(C)CCC1` [ATRA, all-trans-retinoic acid]: the figures for the “effect on cell growth” value in the assay on SK-OV-3 cells, in the assay with UT-OC-1 cells (10 μM alone) and in the assay with UT-OC-4 cells (10 μM alone) were “inhibited the growth of SK-OV-3 cells”, “inhibited cell growth with equal magnitude” and “inhibited UT-OC-4 cell growth”, respectively. In addition, the RARα expression in [2] (10 μM) is 293±70 % of control. Further, the RARβ expression is 214±127 % of control in assay [9] and 657±30 % of control in [10]. Also, in assay [3] (10 μM), the “increase of RARγ compared to control” value was found to be 119±19%. Besides, the “up regulation of RARγ compared to control” value in assay [4] (10 μM) came to 83±66%. Besides, in assay [11], the VDR expression is 53±11 % of control. For the same molecule, the AIB1 expression in assay [12] is on record as 160 (±10) % of ethanol-treated control.

On to `C=C1/C(=C\C=C2/CCCC3(C)C2CC[C@@H]3[C@H](C)CCS(=N)(=O)c2ccc(F)cc2)C[C@@H](O)C[C@@H]1O` (stereo partly drawn) [Formula VI], for which, on 24-hydroxylase, the “inhibitory potency for 24-hydroxylase” value is reported as “Only slightly less potent”.

Consider `C=C1/C(=C\C=C2/CCCC3(C)C2CC[C@@H]3[C@H](C)CCS(=N)(=O)c2ccccc2)C[C@@H](O)C[C@@H]1O` (stereo partly drawn) [Formula V], for which, at 24-hydroxylase, the “inhibitory potency for 24-hydroxylase” value is reported as “most potent compound”.
